Assay [1] relates to MDA-MB-231 cells. The assay can be described thus: Cell-cycle analysis (PI staining, flow cytometry). It counts as cell-based, human. Conditions: for cells in G2/M phase / cells in S phase / cells in G1 phase: 72 h; for cells in G2/M phase: control 11.04%; for cells in S phase: control 36.51%; for cells in G1 phase: control 52.44%. For orientation: Flow cytometry measures light scatter and fluorescence of single cells or particles in a stream.

Assay [2] deals with MDA-MB-231 cells. The assay can be described thus: Cell apoptosis assay (annexin V-FITC/PI, flow cytometry). The assay is classed as cell-based, human. Conditions: 72 h, control 5.85%. How it is done: MDA-MB-231 cells were cultured in 6-well plates at 37 °C for 24 h, and then different concentrations of 22e (0, 0.475, 0.95 and 1.9 μM) were added. After 72 h of incubation, the cells were collected and suspended in binding buffer (500 μL). Finally, annexin V-fluorescein isothiocyanate (Annexin V-FITC, 5 μL) and propidium iodide (PI, 5 μL) were added, and the reaction was kept at room temperature in the dark for 10 min, then cell apoptosis was measured by flow cytometry.

Assay [3] relates to MDA-MB-231 cells. The assay can be described thus: Detection of intracellular ROS (DCFH-DA, flow cytometry). The assay is classed as cell-based, human. Conditions: 72 h, control 4.56%. The method, then:
MDA-MB-231 cells were seeded overnight in 6-well plates, treated with different concentrations of 22e (0, 0.475, 0.95 and 1.9 μM) for another 72 h. After digestion and washing, the cell suspension was prepared and cultured with fluorescent probe 2′,7′-dichlorodihydrofluorescein diacetate (DCFH-DA, Sigma-Aldrich, Darmstadt, Germany) at 37 °C for 20 min. Then, after the cells were washed, the intracellular reactive oxygen species (ROS) was measured by flow cytometry at 488 nm (excitation wavelength) and 530 nm (emission wavelength).

Assay [4] deals with MDA-MB-231 cells. Nature of the assay: Comet assay (DNA damage). It counts as cell-based, human. Conditions: 72 h, control 0.48%. The method, then: DNA damage was detected by Comet Assay Kit (Keygen, Nanjing, China) according to the manufacturer’s instructions. Briefly, MDA-MB-231 cells were treated with 22e (0, 0.475, 0.95 and 1.9 μM) for 72 h. The collected cells were fixed on CometSlide for 15 min at 4 °C. Subsequently, the cells were incubated in lysis solution at 4 °C for 90 min, the slides were electrophoresed for 20 min, fixed in ethanol for 5 min, and stained with Vista Green DNA Dye. Finally, the data were got by fluorescence microscope.

Assay [5] relates to MDA-MB-231 cells. Nature of the assay: Wound healing assay (migration). The assay is classed as cell-based, human. Conditions: 22e 0.475, 0.95 and 1.9 μM, 24 h, versus untreated cells. How it is done: MDA-MB-231 cells were cultured in 6-well plates at 37 °C for 24 h. After the cells attached, different concentrations of 22e (0, 0.475, 0.95 and 1.9 μM) were added. Sterile pipette tips were used to scratch evenly in 6-well plates, the floating cells were washed away with PBS, and the fresh culture medium was replaced. After incubation for 24 h, the cells were photographed and the migration distance was measured.

Assay [6] relates to MDA-MB-231 cells. Nature of the assay: Transwell assay (invasion). The assay is classed as cell-based, human. Conditions: 22e 0.475, 0.95 and 1.9 μM, 24 h. How it is done: MDA-MB-231 cells were seeded in 24-well transwell plates upper chambers, different concentrations of 22e (0, 0.475, 0.95 and 1.9 μM) were incubated on the lower surface for 24 h. The cells in the upper surface of the membrane were removed, and the migrated or invaded cells of the membranes bottom surface were placed in 0.1% crystal violet for staining for 30 min. Finally, the cells that migrated or invaded of the chamber bottom were photographed and counted.

The test system of assay [7] is MDA-MB-231 cells. Nature of the assay: Adhesion assay. It counts as cell-based, human. Conditions: 22e 0.475, 0.95 and 1.9 μM, 72 h. How it is done:
Different concentrations of 22e (0, 0.475, 0.95 and 1.9 μM) were used to treat MDA-MB-231 cells for 72 h. Then the serum-free medium containing CaM stain was added, cell suspension (100 μL) was cultured to 96-well plates (2000 cells/well) for 1 h. Finally, plates were washed with PBS, fixed with 3.7% formaldehyde, washed with PBS again, and took pictures with fluorescence microscope.

Assay [8] has as its system TNBC cell line MDA-MB-231. Nature of the assay: CCK-8 assay, antiproliferative activity against MDA-MB-231. Conditions: Homo sapiens, MDA-MB-231, 72 h, read-out: IC50 MDA-MB-231. A general note: Tetrazolium dyes change colour on reduction, which living cells bring about.

SMILES strings stand for the structures.

With `COC(=O)[C@H](Cc1ccc(N(CCCl)CCCl)cc1)NC(=O)CCCC(=O)NCc1coc2ccc(OC)cc2c1=O` [Compound 22e, Methyl (S)-3-(4-(bis(2-chloroethyl)amino)phenyl)-2–(5-(((6-methoxy-4-oxo-4H-chromen-3-yl)methyl)amino)-5-oxopentanamido)propanoate], the “cells in G2/M phase” value was 12.98% in assay [1] (22e 0.475 μM), 14.53% in assay [1] (22e 0.95 μM) and 21.28% in assay [1] (22e 1.9 μM). Moreover, the “cells in S phase” value in assay [1] (22e 0.475 μM) turned out to be 36.58%; in assay [1] (22e 0.95 μM) it was 34.59%; in assay [1] (22e 1.9 μM), 36.21%. Moreover, the “cells in G1 phase” value in assay [1] (22e 0.475 μM) worked out at 50.44%; in assay [1] (22e 0.95 μM), 50.88%; in assay [1] (22e 1.9 μM), 42.51%. Moreover, in assay [1] (22e 0.475, 0.95 and 1.9 μM versus control), the “cells in the S phase (in words)” value is “remained essentially unchanged”. In addition, the total apoptosis ratio in assay [2] (22e 0.475 μM) was determined as 11.00%; in assay [2] (22e 0.95 μM) it was 16.27%; in assay [2] (22e 1.9 μM) it was 42.12%. For the same compound, the “DCFH-DA positive cells ratio” value in assay [3] (22e 0.475 μM) was 8.05%; in assay [3] (22e 0.95 μM), 18.47%; in assay [3] (22e 1.9 μM), 45.98%. In addition, the “tail DNA percentage” value in assay [4] (22e 0.475 μM) worked out at 19.95%; in assay [4] (22e 0.95 μM), 38.15%; in assay [4] (22e 1.9 μM), 48.73%. Also, the “wound closure distance (migration), in words” value in assay [5] was “significantly shortened”. Moreover, the “MDA-MB-231 cells invasion, in words” value in assay [6] is “significantly inhibited”. The “adhesion of MDA-MB-231 cells, in words” value in assay [7] is reported as “inhibit the adhesion of MDA-MB-231 cells in a concentration-dependent manner”. Also, the IC50 in assay [8] came to 1900 ± 180 nM.

By IC50 is commonly meant the concentration needed to halve the response being measured.

The values above are taken from paper PMC8725944, “Design and synthesis of chromone-nitrogen mustard derivatives and evaluation of anti-breast cancer activity” (Journal of Enzyme Inhibition and Medicinal Chemistry, 2021).
